Source: ChEMBL document CHEMBL1132189, “Three-dimensional quantitative structure-activity relationship analyses using comparative molecular field analysis and comparative molecular similarity indices analysis to elucidate selectivity differences of inhibitors binding to trypsin, thrombin, and factor Xa” (J Med Chem, 1999)

How the values were obtained:
Serine protease 1 = target: T1, Serine protease 1 (Bos taurus, UniProt P00760); assay: Binding affinity towards trypsin
T1 sequence (P00760 whole entry): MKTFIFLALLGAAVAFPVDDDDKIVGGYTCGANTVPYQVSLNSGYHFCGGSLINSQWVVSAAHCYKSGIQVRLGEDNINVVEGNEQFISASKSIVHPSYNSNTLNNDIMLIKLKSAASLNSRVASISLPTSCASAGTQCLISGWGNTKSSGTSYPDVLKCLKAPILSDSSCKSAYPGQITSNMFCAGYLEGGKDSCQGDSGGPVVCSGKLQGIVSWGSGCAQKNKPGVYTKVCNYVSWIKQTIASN

Prothrombin = Prothrombin (Bos taurus, UniProt P00735); assay: Binding affinity towards thrombin
Coagulation factor X = Coagulation factor X (Homo sapiens, UniProt P00742); assay: Binding affinity towards Coagulation factor Xa
Coagulation factor X, sequence (P00742 41-179 limits assumed): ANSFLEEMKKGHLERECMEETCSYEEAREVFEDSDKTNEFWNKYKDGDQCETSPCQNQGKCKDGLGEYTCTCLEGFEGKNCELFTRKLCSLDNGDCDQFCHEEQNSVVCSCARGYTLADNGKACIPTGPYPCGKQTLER
Coagulation factor X, sequence (P00742 235-488 limits assumed): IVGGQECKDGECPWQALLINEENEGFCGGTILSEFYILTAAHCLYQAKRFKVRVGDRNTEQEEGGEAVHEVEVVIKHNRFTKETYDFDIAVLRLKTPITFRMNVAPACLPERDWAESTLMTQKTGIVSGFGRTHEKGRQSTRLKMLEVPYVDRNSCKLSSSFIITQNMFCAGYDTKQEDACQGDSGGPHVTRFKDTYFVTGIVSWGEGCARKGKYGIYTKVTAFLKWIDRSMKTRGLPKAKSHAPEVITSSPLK

Compound	Ki (Serine protease 1)	Ki (Prothrombin)	Ki (Coagulation factor X)
Cc1c(C)c(S(=O)(=O)N[C@@H](Cc2cccc(C(=N)N)c2)C(=O)N2CCC(C)CC2)c(C)c2c1OC(C)(C)CC2	729 nM	34 nM	80000 nM
COC(=O)C1CCN(C(=O)[C@H](Cc2cccc(C(=N)N)c2)NS(=O)(=O)c2c(C(C)C)cc(C(C)C)cc2C(C)C)CC1	270 nM	151 nM	2600 nM
Cc1ccc(S(=O)(=O)N[C@@H](Cc2cccc(C(=N)N)c2)C(=O)N2CCC(C)CC2)cc1	520 nM	26 nM	71000 nM
CC1CCN(C(=O)[C@H](Cc2cccc(C(=N)N)c2)NS(=O)(=O)c2ccc3c(c2)C(=O)c2ccccc2C3=O)CC1	74 nM	26 nM	2300 nM
N=C(N)c1cccc(C[C@H](NS(=O)(=O)c2ccc3ccccc3c2)C(=O)N2CCOCC2)c1	210 nM	42 nM	16000 nM
CC(C)c1cc(C(C)C)c(S(=O)(=O)N[C@@H](Cc2cccc(C(=N)N)c2)C(=O)N2CCN(S(C)(=O)=O)CC2)c(C(C)C)c1	979 nM	280 nM	7400 nM
N=C(N)c1cccc(C[C@H](NS(=O)(=O)c2ccc3ccccc3c2)C(=O)N2CCC(C(=O)O)CC2)c1	579 nM	570 nM	43400 nM
COC(=O)[C@H]1CCCN(C(=O)[C@H](Cc2cccc(C(=N)N)c2)NS(=O)(=O)c2ccc3ccccc3c2)C1	389 nM	151 nM	18000 nM
COc1cc(C)c(S(=O)(=O)N[C@@H](Cc2cccc(C(=N)N)c2)C(=O)N2CCN(S(C)(=O)=O)CC2)c(C)c1C	1800 nM	32 nM	120000 nM
CNC(=O)[C@H](Cc1cccc(C(=N)N)c1)NS(=O)(=O)c1ccc(C)cc1	46000 nM	18000 nM	40000 nM
CC(C)c1cc(C(C)C)c(S(=O)(=O)N[C@@H](Cc2cccc(C(=N)N)c2)C(=O)N2CCC[C@H](C(=O)NCc3ccccc3)C2)c(C(C)C)c1	460 nM	1800 nM	2510 nM
CN1CCN(C(=O)[C@H](Cc2cccc(C(=N)N)c2)NS(=O)(=O)c2ccc3ccccc3c2)CC1	1300 nM	36 nM	30000 nM
COC(=O)[C@H]1C[C@H](C)CCN1C(=O)[C@H](Cc1cccc(C(=N)N)c1)NS(=O)(=O)c1ccc2ccccc2c1	2200 nM	95.9 nM	[…]
CNC(=O)[C@H](Cc1cccc(C(=N)N)c1)NS(=O)(=O)c1c(C)cc(OC)c(C)c1C	140000 nM	17000 nM	190000 nM
COc1cc(C)c(S(=O)(=O)N[C@@H](Cc2cccc(C(=N)N)c2)C(=O)N2CCC(C)CC2)c(C)c1C	780 nM	88.9 nM	100000 nM
COC(=O)[C@H](Cc1cccc(C(=N)N)c1)NS(=O)(=O)c1ccc2ccccc2c1	2510 nM	280 nM	2510 nM
CN(C)c1cccc2c(S(=O)(=O)N[C@@H](Cc3cccc(C(=N)N)c3)C(=O)N3CCN(S(C)(=O)=O)CC3)cccc12	170 nM	4.17 nM	3890 nM
N=C(N)c1cccc(C[C@H](NS(=O)(=O)c2ccc3ccccc3c2)C(=O)N2Cc3ccccc3C[C@@H]2C(=O)OCc2ccccc2)c1	1200 nM	690 nM	7760 nM
CNC(=O)[C@H](Cc1cccc(C(=N)N)c1)NS(=O)(=O)c1c(C(C)C)cc(C(C)C)cc1C(C)C	26000 nM	3800 nM	11000 nM

Second part, the molecule after the results:

Ki (Serine protease 1)	Ki (Prothrombin)	Ki (Coagulation factor X)	Compound
23 nM	710 nM	25100 nM	CC(C)OC(=O)C1CCN(C(=O)[C@H](Cc2cccc(C(=N)N)c2)NS(=O)(=O)c2ccc3ccccc3c2)CC1
427 nM	511 nM	16000 nM	CC(C)OC(=O)[C@H]1CCCN(C(=O)[C@H](Cc2cccc(C(=N)N)c2)NS(=O)(=O)c2ccc3ccccc3c2)C1
160 nM	160 nM	76000 nM	CNC(=O)C1CCN(C(=O)[C@H](Cc2cccc(C(=N)N)c2)NS(=O)(=O)c2ccc3ccccc3c2)CC1
2100 nM	420 nM	3200 nM	COC(=O)[C@H]1CCC[C@H](C)N1C(=O)[C@H](Cc1cccc(C(=N)N)c1)NS(=O)(=O)c1ccc2ccccc2c1
1410 nM	110 nM	3500 nM	CC(C)OC(=O)[C@H](Cc1cccc(C(=N)N)c1)NS(=O)(=O)c1ccc2ccccc2c1
270 nM	3100 nM	35000 nM	N=C(N)c1cccc(C[C@H](NS(=O)(=O)c2ccc3ccccc3c2)C(=O)N2CCC(C(=O)NCc3ccccc3)CC2)c1
1800 nM	520 nM	36000 nM	COC(=O)[C@H]1[C@@H](C)CCCN1C(=O)[C@H](Cc1cccc(C(=N)N)c1)NS(=O)(=O)c1ccc2ccccc2c1
4500 nM	120 nM	54000 nM	N=C(N)c1cccc(C[C@H](NS(=O)(=O)c2ccc3ccccc3c2)C(=O)N2Cc3ccccc3C=C2C(=O)O)c1
520 nM	42 nM	2200 nM	N=C(N)c1cccc(C[C@H](NS(=O)(=O)c2ccc3ccccc3c2)C(=O)OCc2ccccc2)c1
1100 nM	57.9 nM	35000 nM	N=C(N)c1cccc(C[C@H](NS(=O)(=O)c2ccc3ccccc3c2)C(=O)N2CCN(C(=O)CO)CC2)c1
220 nM	500 nM	21000 nM	N=C(N)c1cccc(C[C@H](NS(=O)(=O)c2ccc3ccccc3c2)C(=O)N2CCNCC2)c1
310 nM	260 nM	33100 nM	CNC(=O)[C@H]1CCCN(C(=O)[C@H](Cc2cccc(C(=N)N)c2)NS(=O)(=O)c2ccc3ccccc3c2)C1
